Experimental findings from ChEMBL document CHEMBL4406795, “An overview on the synthetic and medicinal perspectives of indenopyrazoles” (Eur J Med Chem, 2019) are described below.

Experiment [1] concerns Bacillus subtilis. Briefly: Antibacterial activity against Bacillus subtilis MTCC 441 after 48 hrs by serial tube dilution method. The class given is functional. As to conditions: MTCC 441, 48 h.
The subject of experiment [2] is Candida albicans. Kind of experiment: Antifungal activity against Candida albicans MTCC 183 assessed as zone of inhibition. It is filed as functional.
Experiment [3] concerns Staphylococcus aureus. Briefly: Antibacterial activity against Staphylococcus aureus MTCC 7443 after 48 hrs by serial tube dilution method. It is filed as functional. Particulars: MTCC 7443, 48 h.
Experiment [4] has as its system Escherichia coli. Briefly: Antibacterial activity against Escherichia coli MTCC 42 assessed as zone of inhibition. It is filed as functional.
For experiment [5], the system named is Bacillus subtilis. Kind of experiment: Antibacterial activity against Bacillus subtilis MTCC 441 assessed as zone of inhibition. The class given is functional.
Experiment [6] deals with Candida albicans. Kind of experiment: Antifungal activity against Candida albicans MTCC 183 after 120 hrs by serial tube dilution method. It is filed as functional. Particulars: MTCC 183, 120 h.
Experiment [7] deals with Staphylococcus aureus. Briefly: Antibacterial activity against Staphylococcus aureus MTCC 7443 assessed as zone of inhibition. The class given is functional.
Experiment [8] deals with Escherichia coli. Kind of experiment: Antibacterial activity against Escherichia coli MTCC 42 after 48 hrs by serial tube dilution method. It is filed as functional. As to conditions: for MIC: Escherichia coli, MTCC 42, 48 h.
For experiment [9], the system named is Aspergillus niger. Briefly: Antifungal activity against Aspergillus niger MTCC 282 after 120 hrs by serial tube dilution method. It is filed as functional. As to conditions: MTCC 282, 120 h.
For experiment [10], the system named is Aspergillus niger. Briefly: Antifungal activity against Aspergillus niger MTCC 282 assessed as zone of inhibition. The class given is functional.
In experiment [11] the target is Cyclin-dependent kinase 2 (Homo sapiens, UniProt P24941). Briefly: Inhibition of CDK2 (unknown origin).
The test system of another experiment is Pseudomonas aeruginosa. Kind of experiment: Antibacterial activity against Pseudomonas aeruginosa MTCC 741 after 48 hrs by serial tube dilution method. The class given is functional. As to conditions: MTCC 741, 48 h.

≈ marks a conversion by molar mass, not a printed value.

What is called MIC is the lowest concentration found to suppress growth. A low value points to inhibition by little substance. For `O=[N+]([O-])c1ccc(-c2nn(-c3ccccc3)cc2-c2c3c(nn2-c2ccccc2)-c2ccccc2C3)cc1`, the minimum inhibitory concentration (MIC) was 50 µg/mL (≈ 101 µM) in the experiment on Bacillus subtilis [1]; 50 µg/mL (≈ 101 µM) in the experiment on Staphylococcus aureus [3]; 50 µg/mL (≈ 101 µM) against Candida albicans [6]; 50 µg/mL (≈ 101 µM) against Escherichia coli [8]; 50 µg/mL in the experiment with Aspergillus niger [9]. In addition, the “inhibition zone (IZ)” value in the experiment with Candida albicans [2] worked out at 18 mm; in the experiment on Escherichia coli [4], 20 mm; with Bacillus subtilis [5], 20 mm; in the experiment with Staphylococcus aureus [7], 20 mm; in the experiment on Aspergillus niger [10], 18 mm.

For the compound `Clc1ccc(-c2c3c(nn2-c2ccccc2)-c2ccccc2C3)cc1`, the “inhibition zone (IZ)” value in the experiment with Candida albicans [2] and with Aspergillus niger [10] was 16 mm each time. Further, the minimal inhibitory concentration (MIC) in the experiment on Candida albicans [6] came to 50 µg/mL (≈ 146 µM); in the experiment on Aspergillus niger [9], 50 µg/mL.

On to `Cc1nn(-c2nc(-c3ccc(Cl)cc3)cs2)c2c1C(=O)c1ccccc1-2`, for which the “-logMIC” value in the experiment on Escherichia coli [8] is recorded as 1.479.

The IC50 is the point on the concentration scale where inhibition reaches its midpoint. Read a high IC50 as weaker potency in that assay. The compound `O=C(Nc1cccc2c1C(=O)c1c-2n[nH]c1-c1ccc(C(=O)N2CCNCC2)s1)NN1CCOCC1` returned an IC50 in experiment [11] of 8 nM.

Consider `O=[N+]([O-])c1ccc(-c2c3c(nn2-c2ccccc2)-c2ccccc2C3)cc1`, for which the MIC came to 50 µg/mL (≈ 141 µM) with Bacillus subtilis [1]; 50 µg/mL (≈ 141 µM) with Staphylococcus aureus [3]; 50 µg/mL (≈ 141 µM) with Candida albicans [6]; 50 µg/mL (≈ 141 µM) in the experiment with Escherichia coli [8]; 50 µg/mL with Aspergillus niger [9]. Besides, the “inhibition zone (IZ)” value in the experiment with Candida albicans [2] is 13 mm; in the experiment on Escherichia coli [4], 18 mm; in the experiment on Bacillus subtilis [5] it was 18 mm; in the experiment with Staphylococcus aureus [7], 18 mm; in the experiment on Aspergillus niger [10], 13 mm.

Regarding `NC(=O)Nc1cccc2c1C(=O)c1c-2n[nH]c1-c1csc(Cl)c1`, the IC50 in [11] turned out to be 46 nM.

In the case of `O=[N+]([O-])c1cccc(-c2c3c(nn2-c2ccccc2)-c2ccccc2C3)c1`, the MIC with Bacillus subtilis [1] stood at 50 µg/mL (≈ 141 µM); in the experiment on Staphylococcus aureus [3] it was 50 µg/mL (≈ 141 µM); against Candida albicans [6], 50 µg/mL (≈ 141 µM); in the experiment with Escherichia coli [8] it was 50 µg/mL (≈ 141 µM); in the experiment on Aspergillus niger [9] it was 50 µg/mL. In addition, the “inhibition zone (IZ)” value in the experiment with Candida albicans [2] amounted to 15 mm; with Escherichia coli [4] it was 17 mm; with Bacillus subtilis [5], 17 mm; in the experiment on Staphylococcus aureus [7], 17 mm; with Aspergillus niger [10], 15 mm.

With `CCc1nn(-c2nc(-c3ccc(Cl)cc3)cs2)c2c1Cc1ccccc1-2`, the “-logMIC” value with Escherichia coli [8] is listed as 1.78.

For the compound `Clc1ccc(-c2nn(-c3ccccc3)cc2-c2c3c(nn2-c2ccccc2)-c2ccccc2C3)cc1`, the minimal inhibitory concentration (MIC) in the experiment with Bacillus subtilis [1], against Staphylococcus aureus [3] and against Escherichia coli [8] was 50 µg/mL (≈ 103 µM) in each case. In addition, the “inhibition zone (IZ)” value in the experiment with Escherichia coli [4], in the experiment on Bacillus subtilis [5] and in the experiment with Staphylococcus aureus [7] was 17 mm in each case.

The compound `OC(Cn1cncn1)(Cn1cncn1)c1ccc(F)cc1F` [FLUCONAZOLE] came in with an MIC against Aspergillus niger [9] of 5 µM.

Turning to `COc1ccc(-c2n[nH]c3c2C(=O)c2c(C=O)cccc2-3)cc1`, the IC50 in experiment [11] is 57 nM.

Turning to `COc1cc2c(cc1OC)C1=NN(C(N)=S)C(c3ccc(F)cc3)C1C2` (stereo unspecified), the MIC in the experiment with Bacillus subtilis [1], with Staphylococcus aureus [3], against Escherichia coli [8] and in the experiment on Pseudomonas aeruginosa was 4 µg/mL (≈ 10.8 µM) in each case.

On to `CCc1nn(-c2nc(-c3ccc(Cl)cc3)cs2)c2c1C(=O)c1ccccc1-2`, for which the “-logMIC” value in the experiment with Escherichia coli [8] is 2.098.

Take `COc1ccc(C2C3Cc4cc(OC)c(OC)cc4C3=NN2C(N)=O)cc1` (stereo unspecified): the values for the MIC with Candida albicans [6] and with Aspergillus niger [9] were 2 to 4 µg/mL (≈ 5.44 to 10.9 µM) and 2 to 4 µg/mL, respectively.

For `Cc1nn(-c2nc(-c3ccc(Cl)cc3)cs2)c2c1Cc1ccccc1-2`, the “-logMIC” value in the experiment with Escherichia coli [8] is on record as 1.764.

For `Cc1ccc2nc(-n3nc(-c4ccc(Cl)cc4)c4c3-c3ccccc3C4=O)sc2c1`, the MIC with Aspergillus niger [9] was 3.6 µM.

In turn, `COc1ccc(-c2[nH]nc3c2C(=O)c2c(NC(=O)CN4CCN(C(=N)N)CC4)cccc2-3)cc1` gave an IC50 in experiment [11] of 13 nM.
